Values of other authors, collected in patent publication US20210251886A1, “ORAL MUCOSAL DELIVERY SYSTEMS COMPRISING MONOPHASIC CONCENTRATE OF TERIPARATIDE” (ZIM LABORATORIES LIMITED, priority 2018, published 2021).
Like-named read-outs stand apart in the source and are kept apart here.

Details: dogs

bioavailability (buccal route): about 3.3%
bioavailability (oral route): 4.8%
Compound: CC[C@H](C)[C@H](NC(=O)[C@H](CCC(=O)O)NC(=O)[C@H](CO)NC(=O)[C@@H](NC(=O)[C@@H](N)CO)C(C)C)C(=O)N[C@@H](CCC(N)=O)C(=O)N[C@@H](CC(C)C)C(=O)N[C@@H](CCSC)C(=O)N[C@@H](Cc1cnc[nH]1)C(=O)N[C@@H](CC(N)=O)C(=O)N[C@@H](CC(C)C)C(=O)NCC(=O)N[C@@H](CCCCN)C(=O)N[C@@H](Cc1cnc[nH]1)C(=O)N[C@@H](CC(C)C)C(=O)N[C@@H](CC(N)=O)C(=O)N[C@@H](CO)C(=O)N[C@@H](CCSC)C(=O)N[C@@H](CCC(=O)O)C(=O)N[C@@H](CCCN=C(N)N)C(=O)N[C@H](C(=O)N[C@@H](CCC(=O)O)C(=O)N[C@@H](Cc1c[nH]c2ccccc12)C(=O)N[C@@H](CC(C)C)C(=O)N[C@@H](CCCN=C(N)N)C(=O)N[C@@H](CCCCN)C(=O)N[C@@H](CCCCN)C(=O)N[C@@H](CC(C)C)C(=O)N[C@@H](CCC(N)=O)C(=O)N[C@@H](CC(=O)O)C(=O)N[C@H](C(=O)N[C@@H](Cc1cnc[nH]1)C(=O)N[C@@H](CC(N)=O)C(=O)N[C@@H](Cc1ccccc1)C(=O)O)C(C)C)C(C)C [PTH (1-34)]
